In US8883167B2, “Ethanol extract of Antrodia camphorata for inducing apoptosis and preparation method thereof” (Kaohsiung Medical University, priority 2009, dated 2014) one finds IC50 data, which are given here for one compound.

SMILES strings stand for the structures. ≈ marks a conversion by molar mass, not a printed value.

The test system of this assay is HL 60 cells. Briefly: MTT cytotoxicity / antiproliferative assay on HL 60 cells. Type of assay: cell-based. As to conditions: Homo sapiens, Embodiment 1, 24 hours, read-out: 50% inhibition concentration (IC50) on HL 60 cells by MTT assay. On the procedure:
Human leukemia HL 60 cell line was purchased from American Type Culture Collection (ATCC, Manassas, Va.) and incubated in RPMI 1640 medium supplemented with 10% fetal calf serum, 2 mM glutamine, 100 units/ml penicillin and 100 μg/ml streptomycin at 37° C. in a humidified atmosphere of 5% carbon dioxide.
Cell viability was determined by the trypan blue dye exclusion and cytotoxicity was assessed by MTT assay. First, 1×10^5 HL 60 cells were plated in 96-well plates and treated with different concentrations of EEAC dissolved in dimethyl sulfoxide (DMSO) at the concentrations of 0 to 150 μg/ml for 24 hours. Death cells then were stained with trypan blue, and the survival cells were calculated with hemocytometer. In MTT assay, 1.2 mg/ml MTT was added in each well, which was incubated for 2 hours to form […], formazan. Formazan was dissolved in DMSO, and absorbance was detected at a wavelength of 570 nm.
On the technique in general: Formazan colour is commonly taken as a measure of viable cells.

Take `C=C(CC[C@@H](C)C1CCC2C3=C(C(=O)CC21C)C1(C)CCC(=O)[C@@H](C)C1CC3=O)C(C)C(=O)O` (stereo partly shown) [zhankuic acid A]: the IC50 was determined as 5.45 µg/mL (≈ 11.6 µM).
